Where two headings read alike, the source gives them in different places.
Key:
[1] = tested on: Aurantiochytrium acetophilum HS399; test: Single vs two-stage fermentation with propionic acid (Example 12); format: cell-based; conditions: propionic acid fed
Excerpt: Further, in this implementation, during the lipid phase, no additional nitrogen is fed, and the cell accumulated the lipids. In the single stage mode, half of the nitrogen (2.5 g/L NH3) can be batch fed, while the other half (2.5 g/L NH3) can be fed along with the glucose until the end of the fermentation. In this implementation, both treatments receive substantially the same nutrients; however, the single stage mode grows and accumulates lipids in a coordinated way throughout the fermentation. The single stage system can be characterized by an early lipid accumulation. […] Each of the four treatments can be cultured in duplicate (n=2) fermenters. […] As illustrated, propionic acid slows down the growth on both systems, but the two-stage system provides a better growth rate than the single stage system in the presence of propionate. […] This implementation illustrates that the traditional two stage approach to lipid accumulation may be preferable to produce OCFAs.

[2] = tested on: Aurantiochytrium acetophilum HS399
Experimental: The cultures are incubated in an orbital shaker at 180 rpm and 27° C.
Respective Erlenmeyer flasks contain 100 mL of a medium supplemented with (g/L): dextrose (100), ammonium acetate (4.6), NaCl (12.5), MgSO4 7H2O (2.5), KH2PO4 (0.5), KCl (0.5) and CaCl2 (0.1). This medium also contains trace element solution (5 ml/L) and vitamin solution (1 ml/L). The trace element solution contains (g/L): EDTA di-sodium salt (6), FeCl3 6H2O (0.29), […] (6.84), MnCl2 4H2O (0.86), ZnCl2 (0.06), CoCl2 6H2O (0.026), NiSO4 6H2O (0.052), CuSO4 5H2O (0.002), Na2MoO4H2O (0.005). The vitamin solution contains (mg/L): thiamine (100), biotin (0.5) and cyanocobalamin (0.5). All culture materials can be autoclaved (e.g., 121° C., 15 min) and the media can be filter sterilized before use. […] Daily samples are collected to analyze the cell dry weight, residual glucose, culture pH (see FIG. 9), and lipid and fatty acid composition of the cultures. Cell dry weights (CDW) can be analyzed by filtration (e.g., 0.2 μm filter media) using a vacuum, and washed with a solution of ammonium bicarbonate. Residual glucose can be analyzed using colorimetric methods based on glucose […] activity. Biomass for lipid analysis is centrifuged and washed using purified water. The washed biomass is freeze dried. Total lipids are analyzed using Folch method (AOAC 996.06) and the FAMES re analyzed by gas chromatography using nonadecanoic (C19:0) acid as an internal standard.

[3] = tested on: Aurantiochytrium acetophilum HS399; test: Propionate concentration and OCFA titers, flask (Example 13); format: cell-based; conditions: 96 h
Excerpt: The trace element solution contains (g/L): […] The vitamin solution contains (mg/L): thiamine (100) and biotin (0.5). […] The washed biomass is freeze dried.

Y. lipolytica = test: Model of cytoplasmic propionate in Yarrowia lipolytica; conditions: 2 g/L d propionic fed, pH 3
Excerpt: In this aspect, while the propionate and free proton form enters the microalgae cell through a monocarboxylic symport structure, propionic acid is membrane permeable and may be diffused directly into the microalgae cell. Therefore, in this aspect, the uptake of propionate can be controlled by the cell, and the uptake of propionic acid may not be controlled by the cell. As an example, the uncontrolled uptake of propionic acid presumably lowers the internal Aurantiochytrium cell pH; in turn, the cell attempts to maintain its pH homeostasis by pumping protons out of the cell. […] In one implementation, the change in pH may be calculated with the following equation derived from the Henderson and Hasselbalch equation: […]
In these implementations, the results illustrate that growth of the Y. lipolytica may not be affected by up to 2 g/L d propionic fed despite the low pH (3) present.

[4] = tested on: Aurantiochytrium acetophilum HS399; remark: listed apart in the source
Experimental: In one implementation, a 250 mL Erlenmeyer flask can be used to cultivate A. acetophilum HS399.
In one implementation, a 250 mL Erlenmeyer flask can be used to cultivate A. acetophilum HS399. […] Cell dry weights may be analyzed using a filtration method. Ammonia can be measured using a Cedex bio-analyzer (Roche). […] The fatty acid profile of the biomass can be analyzed using gas chromatography.

[5] = 116 h, propionate 3 + 3 + 3 g/L
[6] = propionate 3 + 3 + 3 g/L (166 h)

`CCC(=O)O` [Propionate, propionic acid] was tested, and the Productivity ([1]; single stage, 96 h) was 20.7 g/L/day, the “Biomass Yield” value ([1]; single stage, batch time 96 h) was 82.5 g/L and the Productivity ([1]; two stage, 89 h) was 34.1 g/L/day. For the same molecule, the “Biomass Yield” value ([1]; two stage, batch time 89 h) was 125.8 g/L, the OCFA ([2]; 68 h, propionate 3 + 3 + 3 g/L) was 60.6 ± 0.4 % TFA and the “Total Fatty Acids” value ([2]; 68 h, propionate 3 + 3 + 3 g/L) was 40.7 ± 1.7 % DW. For the same molecule, the OCFA ([2]; 68 h, propionate 3 + 3 g/L) was 60.9 ± 0.6 % TFA, the “Total Fatty Acids” value ([2]; 68 h, propionate 3 + 3 g/L) was 44.5 ± 4.5 % DW and the OCFA ([2]; 68 h, propionate 3 g/L) was 52.9 ± 7.3 % TFA. The “Total Fatty Acids” value ([2]; 68 h, propionate 3 g/L) was 45.1 ± 3.0 % DW, the “growth (cell dry weight)” value ([2]; 70 h, fed batching of 9 g/L propionate) was roughly 15 g/L and the “Total Fatty Acids” value ([2]; 96 h, propionate 3 + 3 + 3 g/L) was 56.3 ± 1.2 % DW. The “Total Lipids” value ([2]; 96 h, propionate 3 + 3 + 3 g/L) was 70.0 ± 1.0 % DW, the OCFA ([2]; 96 h, propionate 3 + 3 + 3 g/L (P9)) was 62.9 ± 0.2 % TFA and the OCFA ([2]; 96 h, propionate 3 + 3 + 3 g/L (P9), listed as propionate) was 62.4 % TFA. The “Total Fatty Acids” value ([2]; 96 h, propionate 3 + 3 g/L) was 62.5 ± 0.3 % DW, the “Total Lipids” value ([2]; 96 h, propionate 3 + 3 g/L) was 73.3 ± 1.5 % DW and the OCFA ([2]; 96 h, propionate 3 + 3 g/L (P6)) was 62.8 ± 0.2 % TFA. The OCFA ([2]; 96 h, propionate 3 + 3 g/L (P6), listed as propionate) was 62.4 % TFA, the OCFA ([2]; 96 h, propionate 3 g/L) was 24.0 ± 1.0 % TFA and the “Total Fatty Acids” value ([2]; 96 h, propionate 3 g/L) was 66.8 ± 4.8 % DW. For the same molecule, the “Total Lipids” value ([2]; 96 h, propionate 3 g/L) was 81.0 ± 1.0 % DW, the OCFA [2, 5] was 60.8 ± 0.2 % TFA and the “Total Fatty Acids” value [2, 5] was 63.1 ± 2.0 % DW. For the same molecule, the “Total Lipids” value [2, 5] was 74.0 ± 1.0 % DW, the OCFA ([2]; 116 h, propionate 3 + 3 + 3 g/L, listed as propionic acid) was 60.4 % TFA and the OCFA ([2]; 116 h, propionate 3 + 3 g/L) was 57.5 ± 1.4 % TFA. For the same molecule, the “Total Fatty Acids” value ([2]; 116 h, propionate 3 + 3 g/L) was 70.8 ± 0.6 % DW, the “Total Lipids” value ([2]; 116 h, propionate 3 + 3 g/L) was 77.7 ± 0.6 % DW and the OCFA ([2]; 116 h, propionate 3 g/L) was 22.8 ± 0.8 % TFA. The “Total Fatty Acids” value ([2]; 116 h, propionate 3 g/L) was 71.7 ± 4.3 % DW, the “Total Lipids” value ([2]; 116 h, propionate 3 g/L) was 74.8 ± 0.3 % DW and the “non-lethal but growth inhibitory concentration” value ([2]; as low as, pH of 7) was 1 g/L. For the same molecule, the “OCFA Productivity” value [2, 6] was 2.56 ± 0.04 g/L/day, the Propionate deposition [2, 6] was 39.5 ± 1.7% and the “OCFA Productivity” value ([2]; propionate 3 + 3 g/L (116 h)) was 2.89 ± 0.06 g/L/day. The Propionate deposition ([2]; propionate 3 + 3 g/L (116 h)) was 65.0 ± 0.6%, the “OCFA Productivity” value ([2]; propionate 3 g/L (96 h)) was 1.53 ± 0.02 g/L/day and the Propionate deposition ([2]; propionate 3 g/L (96 h)) was 57.0 ± 0.9%. The “OCFAs of total DW of algal product” value ([2]; three doses of 3 g/L, 60.4% OCFAs of the 63.1% TFA) was 38.1%, the OCFA ([3]; propionate 2 g/L) was 30.7 ± 1.8 % TFA and the “Total Fatty Acids” value ([3]; propionate 2 g/L) was 54.8 ± 5.6 % DW. For the same molecule, the OCFA ([3]; propionate 3 g/L) was 50.8 ± 1.1 % TFA, the “Total Fatty Acids” value ([3]; propionate 3 g/L) was 56.2 ± 0.6 % DW and the OCFA ([3]; propionate 4 g/L) was 63.0 ± 2.5 % TFA. The “Total Fatty Acids” value ([3]; propionate 4 g/L) was 39.2 ± 12.4 % DW, the OCFA ([3]; propionate 5 g/L) was 64.6 ± 0.3 % TFA and the “Total Fatty Acids” value ([3]; propionate 5 g/L) was 41.0 ± 3.4 % DW. For the same molecule, the “accumulation of cytoplasmic propionate” value (Y. lipolytica) was 328 g/L, the “Propionate deposition” value ([4]; 0 + 3 g/L fed in lipid phase) was 58.8 ± 1.9% and the “Propionate deposition” value ([4]; 0 + 3 g/L fed in lipid phase, listed as propionate) was 58.8%. For the same molecule, the “Propionate deposition” value ([4]; 3 g/L fed in growth phase) was 53.0 ± 1.0% and the “Propionate deposition” value ([4]; 3 g/L fed in growth phase, listed as propionate) was 53%.

Source: US12285034B2, “Human and non-human animal use of microbial anaplerotic oil” (HELIAE DEVELOPMENT, LLC, priority 2017, dated 2025)
